Assay results reported in patent US10435447B2, “Bacteriocidal peptides and uses thereof” (priority 2015, dated 2019).
Converted amounts (≈) assume the structure as drawn. “Also recorded” adds a separate entry of the source. Where two headings read alike, the source gives them in different places. Residues, ends and D or L forms follow the SMILES beside them. No end group written: not given here.

Assays:
[1] = system: 19 selected strains of Gram-negative bacteria; assay type: cell-based; conditions: for antibacterial / bacteriocidal activity (in words): 19 Gram-negative strains; for number of the 19 Gram-negative strains inhibited: peptide at 16 μg/ml (~4 μM)
Text: FIG. 3. […] FIG. 3A. […] FIG. 3B. […] FIG. 3C. […] FIG. 3D. […] FIG. 3F.

[2] = system: E. faecalis
[3] = system: S. aureus
[4] = system: human red blood cells (hRBCs); conditions: human RBCs
[5] = system: Toll-like receptor 3 (TLR3); experiment: IL-6 ELISA, TLR3 signaling with poly(I:C) in BEAS-2B cells; assay type: cell-based, human
Protocol: Innate immune signaling by endogenous Toll-like receptor 3 (TLR3) in BEAS-2B cells in response to double-stranded RNA and various bacteriocidal peptides. IL-6 cytokine produced in response to signal transduction by TLR3 and the double-stranded RNA mimic, poly(I:C), was quantified using ELISA. Where present, the peptides were added to the media of BEAS-2B cells to a final concentration of 2 μM. […] All assays were performed in three independent samples and the mean and one standard error is shown above the bars.

| Compound | MIC [2] [µg/mL] | MIC ([3]; S. aureus 25923) [µg/mL] | MIC ([3]; S. aureus 29213) [µg/mL] | RBC lysis (in words) [4] | enhancement of TLR3 signaling / IL-6 production (in words) [5] | also measured |
| --- | --- | --- | --- | --- | --- | --- |
| CC[C@H](C)[C@H](NC(=O)[C@@H](NC(=O)[C@@H]1CCCN1C(=O)[C@H](CO)NC(=O)[C@H](CC(C)C)NC(=O)[C@H](CCCCN)NC(=O)[C@H](CCCCN)NC(=O)[C@H](Cc1ccccc1)NC(=O)[C@H](CC(C)C)NC(=O)[C@H](CCCCN)NC(=O)[C@H](CCCCN)NC(=O)[C@H](Cc1ccccc1)NC(=O)[C@H](CCCCN)NC(=O)[C@H](CCCCN)NC(=O)[C@H](CCCNC(=N)N)NC(=O)[C@H](Cc1ccccc1)NC(=O)[C@H](CCCNC(=N)N)NC(=O)[C@H](CCCCN)NC(=O)[C@H](Cc1ccccc1)NC(=O)[C@H](CCCNC(=N)N)NC(=O)CN)C(C)C)C(=O)N1CCC[C@H]1C(=O)N[C@@H](CC(C)C)C(=O)N[C@@H](CC(C)C)C(=O)N[C@@H](Cc1c[nH]cn1)C(=O)N[C@@H](CC(C)C)C(=O)NCC(=O)O [BMAP-27] (H-GRFKRFRKKFKKLFKKLSPVIPLLHLG-OH; N-terminus and C-terminus assumed) | >32 | – | – | – | – | antibacterial / bacteriocidal activity (in words) [1]: most potent antibacterial activities; also recorded: most effective |
| CC[C@H](C)[C@H](NC(=O)[C@H](CCCCN)NC(=O)[C@H](CCCNC(=N)N)NC(=O)CNC(=O)[C@H](CC(C)C)NC(=O)[C@H](CCCCN)NC(=O)[C@H](CCC(N)=O)NC(=O)[C@@H](NC(=O)[C@H](CCCNC(=N)N)NC(=O)[C@H](CCCCN)NC(=O)[C@H](CCCNC(=N)N)NC(=O)[C@@H](NC(=O)[C@H](CCCCN)NC(=O)[C@H](CCCNC(=N)N)NC(=O)[C@H](Cc1ccccc1)NC(=O)[C@H](CCCCN)NC(=O)[C@H](CCCCN)NC(=O)[C@H](CCCNC(=N)N)NC(=O)[C@H](CC(C)C)NC(=O)CN)[C@@H](C)O)[C@@H](C)CC)C(=O)NCC(=O)N[C@@H](CCCCN)C(=O)N[C@H](C(=O)NCC(=O)N[C@@H](CCCNC(=N)N)C(=O)N[C@@H](CCCCN)C(=O)N[C@H](C(=O)N[C@@H](Cc1c[nH]c2ccccc12)C(=O)N[C@@H](CCCCN)C(=O)N[C@@H](C)C(=O)N[C@@H](Cc1c[nH]c2ccccc12)C(=O)N[C@@H](CCCNC(=N)N)C(=O)N[C@@H](CCC(=O)O)C(=O)N[C@@H](Cc1ccc(O)cc1)C(=O)O)C(C)C)[C@@H](C)O [CAP-11V1] (H-GLRKKFRKTRKRIQKLGRKIGKTGRKVWKAWREY-OH) | >32 | 32 (≈ 7.51 µM) | 32 (≈ 7.51 µM) | decreased RBC lysis; also recorded: did not result in increased lysis of human RBCs | – | – |
| CC[C@H](C)[C@H](NC(=O)[C@H](CCCCN)NC(=O)[C@H](CCC(=O)O)NC(=O)[C@H](CCCCN)NC(=O)[C@H](CO)NC(=O)[C@H](CCCCN)NC(=O)[C@H](CCCNC(=N)N)NC(=O)[C@H](Cc1ccccc1)NC(=O)[C@H](Cc1ccccc1)NC(=O)[C@H](C)NC(=O)CNC(=O)[C@H](CC(C)C)NC(=O)[C@@H](N)CC(C)C)C(=O)NCC(=O)N[C@@H](CCCCN)C(=O)N[C@@H](C)C(=O)N[C@@H](Cc1ccccc1)C(=O)N[C@@H](CCCCN)C(=O)N[C@@H](CCCNC(=N)N)C(=O)N[C@H](C(=O)N[C@H](C(=O)N[C@@H](CCC(N)=O)C(=O)N[C@@H](CCCNC(=N)N)C(=O)N[C@H](C(=O)N[C@@H](CCCCN)C(=O)N[C@@H](CC(=O)O)C(=O)N[C@@H](Cc1ccccc1)C(=O)N[C@@H](CC(C)C)C(=O)N[C@@H](CCCNC(=N)N)C(=O)O)[C@@H](C)CC)C(C)C)[C@@H](C)CC [LL-29V2] (H-LLGAFFRKSKEKIGKAFKRIVQRIKDFLR-OH) | – | – | – | slightly increased RBC lysis | – | – |
| CC[C@H](C)[C@H](NC(=O)[C@H](CCCCN)NC(=O)[C@H](C)NC(=O)[C@H](CCCCN)NC(=O)[C@H](CO)NC(=O)[C@H](CCCCN)NC(=O)[C@H](CCCNC(=N)N)NC(=O)[C@H](Cc1ccccc1)NC(=O)[C@H](Cc1ccccc1)NC(=O)[C@H](C)NC(=O)CNC(=O)[C@H](CC(C)C)NC(=O)[C@@H](N)CC(C)C)C(=O)NCC(=O)N[C@@H](CCCCN)C(=O)N[C@@H](C)C(=O)N[C@@H](Cc1ccccc1)C(=O)N[C@@H](CCCCN)C(=O)N[C@@H](CCCNC(=N)N)C(=O)N[C@H](C(=O)N[C@H](C(=O)N[C@@H](CCC(N)=O)C(=O)N[C@@H](CCCNC(=N)N)C(=O)N[C@H](C(=O)N[C@@H](CCCCN)C(=O)N[C@@H](C)C(=O)N[C@@H](Cc1ccccc1)C(=O)N[C@@H](CC(C)C)C(=O)N[C@@H](CCCNC(=N)N)C(=O)O)[C@@H](C)CC)C(C)C)[C@@H](C)CC [LL-29V] (H-LLGAFFRKSKAKIGKAFKRIVQRIKAFLR-OH) | – | – | – | comparable levels of RBC lysis as LL-29 | – | – |
| CC[C@H](C)[C@H](NC(=O)[C@H](CCCCN)NC(=O)[C@H](CCC(=O)O)NC(=O)[C@H](CCCCN)NC(=O)[C@H](CO)NC(=O)[C@H](CCCCN)NC(=O)[C@H](CCCNC(=N)N)NC(=O)[C@H](Cc1ccccc1)NC(=O)[C@H](Cc1ccccc1)NC(=O)[C@H](CC(=O)O)NC(=O)CNC(=O)[C@H](CC(C)C)NC(=O)[C@@H](N)CC(C)C)C(=O)NCC(=O)N[C@@H](CCCCN)C(=O)N[C@@H](CCC(=O)O)C(=O)N[C@@H](Cc1ccccc1)C(=O)N[C@@H](CCCCN)C(=O)N[C@@H](CCCNC(=N)N)C(=O)N[C@H](C(=O)N[C@H](C(=O)N[C@@H](CCC(N)=O)C(=O)N[C@@H](CCCNC(=N)N)C(=O)N[C@H](C(=O)N[C@@H](CCCCN)C(=O)N[C@@H](CC(=O)O)C(=O)N[C@@H](Cc1ccccc1)C(=O)N[C@@H](CC(C)C)C(=O)N[C@@H](CCCNC(=N)N)C(=O)O)[C@@H](C)CC)C(C)C)[C@@H](C)CC [LL-29] (H-LLGDFFRKSKEKIGKEFKRIVQRIKDFLR-OH) | – | – | – | reduced in RBC lysis; also recorded: did not result in increased lysis of human RBCs | – | – |
| CC[C@H](C)[C@H](NC(=O)[C@H](CCCCN)NC(=O)[C@H](CCC(=O)O)NC(=O)[C@H](CCCCN)NC(=O)[C@H](CO)NC(=O)[C@H](CCCCN)NC(=O)[C@H](CCCNC(=N)N)NC(=O)[C@H](Cc1ccccc1)NC(=O)[C@H](Cc1ccccc1)NC(=O)[C@H](CC(=O)O)NC(=O)CNC(=O)[C@H](CC(C)C)NC(=O)[C@@H](N)CC(C)C)C(=O)NCC(=O)N[C@@H](CCCCN)C(=O)N[C@@H](CCC(=O)O)C(=O)N[C@@H](Cc1ccccc1)C(=O)N[C@@H](CCCCN)C(=O)N[C@@H](CCCNC(=N)N)C(=O)N[C@H](C(=O)N[C@H](C(=O)N[C@@H](CCC(N)=O)C(=O)N[C@@H](CCCNC(=N)N)C(=O)N[C@H](C(=O)N[C@@H](CCCCN)C(=O)N[C@@H](CC(=O)O)C(=O)N[C@@H](Cc1ccccc1)C(=O)N[C@@H](CC(C)C)C(=O)N[C@@H](CCCNC(=N)N)C(=O)N[C@@H](CC(N)=O)C(=O)N[C@@H](CC(C)C)C(=O)N[C@H](C(=O)N1CCC[C@H]1C(=O)N[C@@H](CCCNC(=N)N)C(=O)N[C@H](C(=O)N[C@@H](CCC(=O)O)C(=O)N[C@@H](CO)C(=O)O)[C@@H](C)O)C(C)C)[C@@H](C)CC)C(C)C)[C@@H](C)CC [LL-37] | – | – | – | RBC lysis in a concentration-dependent manner | – | – |
| BMAP-34: SEQ ID NO: 7, cow cathelicidin, GLFRRLRDSIRRGQQKILEKARRIGERIKDIFRG (listed as Bos taurus) | – | – | – | – | more similar to CRAMP | – |
| GLRKKFRETRKEIQKLGEKIGKTGRKVWKDWREYGQIPYPCRI [CAP-11V3] | >32 | >32 | >32 | – | – | – |
| GLRKKFRETRKEIQKLGRKIGKTGRKVWKAWREYGQIPYPCRI [CAP-11V2] | >32 | >32 | >32 | – | – | – |
| GLRKKFRKTRKRIQKLGRKIGKTGRKVWKAWREYGQIPYPCRI [CAP-11] | >32 | 32 | 32 | – | retained reduced levels of activation of TLR3 in comparison to LL-37; also recorded: retain partial enhancement of TLR3 signaling | antibacterial / bacteriocidal activity (in words) [1]: most potent antibacterial activities; also recorded: most effective; number of the 19 Gram-negative strains inhibited [1]: 16 strains |
| PMAP-37: SEQ ID NO: 8, pig cathelicidin, GLLSRLRDFLSDRGRRLGEKIERIGQKIKDLSEFFQS (listed as Sus scrofa) | – | – | – | – | more similar to CRAMP | – |
| RL-37: SEQ ID NO: 2, Rhesus monkey cathelicidin, RLGNFFRKVKEKIGGGLKKVGQKIKDFLGNLVPRTAS (listed as Macaca mulatta) | – | – | – | – | retain partial enhancement of TLR3 signaling | – |
| eCATH-3: SEQ ID NO: 9, horse cathelicidin, KRFHSVGSLIQRHQQMIRDKSEATRHGIRIITRPKLLLAS (listed as Equus caballus) | – | – | – | – | more similar to CRAMP | antibacterial / bacteriocidal activity (in words) [1]: least effective; number of the 19 Gram-negative strains inhibited [1]: did not inhibit the growth of any |
